From US5589510A, “Method for inhibiting retroviral infection by administering a naphthalenesulfonic acid compound” (priority 1995, dated 1996) come the findings set out here.

Data set [1] deals with HIV-1 RF. Briefly: Antiviral assay, Experimental Protocol I (compound added after infection). In kind it is cell-based. Conditions: Human immunodeficiency virus 1, 240 h, p24 ELISA, read-out: % Inhibition (after day 10); for inhibition at 1.25 µg/mL: 1.25 μg/ml; for inhibition at 2.5 µg/mL: 2.5 μg/ml; for inhibition at 5 µg/mL: 5 μg/ml; for inhibition at 0.6 µg/mL: 0.6 μg/ml. The procedure:
HIV-1 infectivity studies were conducted in CEM, H9, MT2 cells and peripheral blood mononuclear cells (PBMC). CEM, H9 and MT2 were grown in RPMI1640 medium, 10% heat-inactivated fetal bovine serum (FBS). PBMCs were stimulated with 4 μg/ml PHA for 48 hours in RPMI1640, 10% FBS before HIV-1 infection. After HIV-1 infection, PBMCs were maintained in RPMI 1640, 10% FBS and 10 10 units/ml IL-2. The major HIV-1 isolates used were MN, IIIB, SF2, AZT-sensitive A018 and AZT-resistant A018 provided by NIH AIDS research and reference reagent program. Two major antiviral assays were developed to determine the antiviral activities of the compounds of this invention (as inhibitors).
I. The cells were infected with HIV-1 RF or IIIB at an infectivity multiplicity (moi) of 0.001 in the absence of a compound of this invention for one hour. HIV-1 infected cells were washed once with PBS, resuspended in RPMI1640, 10% FBS medium and distributed in 24-well culture dishes (5×10^5 cells per well) in the presence of a compound of this invention as inhibitor. […]
In general terms: An ELISA detects its analyte on a solid surface through an enzyme-linked reagent.

A short description of another data set: LD50, intravenous, mice. To be noted: mouse, in vivo, female mice, mortalities within 1 week. It is filed as in vivo. On the procedure:
The test material was administered intravenously to 5 female mice in five increasing doses. Mortalities were recorded within 1 week, and the LD50 was determined with the aid of statistical calculations.

In data set [2] the test system is TA98, TA1535, TA1537, TA1538, TA100 and W2P2uvr. Briefly: Ames Test (in the presence of S9). In kind it is cell-based, Salmonella typhimurium. From the text: Six Salmonella typhimuriumstrai strains, TA98, TA1535, TA1537, TA1538, TA100 and W2P2uvr were used in this experiment.
The target of data set [3] is T1, recombinant reverse transcriptase (RT) (Human immunodeficiency virus type 1 group M subtype B, UniProt P04585).
T1 construct: purchased Worthington Biochemical Corporation
Nature of the data set: Reverse transcriptase inhibition assay. In kind it is biochemical, HIV-1. The procedure:
Inhibition of recombinant reverse transcriptase (RT) was performed by using commercially available Boehringer Mannheim RT assay kit (Cat. No. 1468 120) based on incorporation of digoxigenin labeled dUTP into DNA. Recombinant enzyme from HIV-1 was purchased from Worthington Biochemical Corporation. The level of anti-RT activity in the sample was determined by measurement of absorbance using an ELISA reader at 405 nm.

Another data set deals with HIV-1 patient isolate IH. Briefly: Inhibition of HIV-1 patient isolate IH in PBMCs. To be noted: Human immunodeficiency virus 1, PBMC, 288 h, read-out: % Inhibition (after day 12); for inhibition at 2.5 µg/mL: 2.5 μg/ml; for inhibition at 5 µg/mL: 5 μg/ml; for inhibition at 10 µg/mL: 10 μg/ml; for inhibition at 20 µg/mL: 20 μg/ml. In kind it is cell-based. The procedure: (§1) The inhibitory effects of additional naphthalenesulfonic acid compounds were tested as follows: Experimental Details:
PBMCs were activated for 48 hours in conditioned medium containing PHA at a concentration of 4 μg/ml. […] The test compound, previously dissolved in a glucose solution (1 mg/ml), was then added to each of the wells to achieve the appropriate concentration. The plate was then incubated overnight (about 15 hours) after which 50 μl of cell-free HIV-1 patient isolate was added to each well. The plates were incubated for further 6 to 8 hours after which all free floating solution of virus was washed off. Washing was performed four times.
(§2) After removal of the virus, all cultures were resuspended in conditioned medium containing 10% FCS.
(§3) For control experiments virus growth was monitored in either 10% FCS or 50% FCS throughout the observation period (15 days).

Data set [4] concerns HIV-1 RF. Briefly: Antiviral assay, Experimental Protocol II (virus incubated with compound before cells). In kind it is cell-based. To be noted: Human immunodeficiency virus 1, 240 h, 10% FCS, p24 ELISA, read-out: % Inhibition (after day 10); for inhibition at 1.25 µg/mL: 1.25 μg/ml; for inhibition at 2.5 µg/mL: 2.5 μg/ml; for inhibition at 5 µg/mL: 5 μg/ml.
For data set [5], the system named is HIV-1 patient isolate NIH 900285. Nature of the data set: Inhibition of HIV-1 patient isolate NIH 900285 in PBMCs. It is filed as cell-based. Conditions: Human immunodeficiency virus 1, PBMC, 288 h, 10% FCS, read-out: % Inhibition (after day 12). The procedure:
as §1
PBMCs were activated for 48 hours in conditioned medium containing PHA at a concentration of 4 μg/ml. Thereafter 10^6 cells were plated in each of the 24 well plates containing 10% FCS or 50% FCS. The test compound, previously dissolved in a glucose solution (1 mg/ml), was then added to each of the wells to achieve the appropriate concentration. The plate was then incubated overnight (about 15 hours) after which 50 μl of cell-free HIV-1 patient isolate was added to each well. The plates were incubated for further 6 to 8 hours after which all free floating solution of virus was washed off. Washing was performed four times.
as §2, §3

The mark [6] stands for this setting: the higher the value, the higher the mutagenicity.

Like-named read-outs stand apart in the source and are kept apart here.

For the compound `CCC(C)(C)c1ccc(OCC(=O)Nc2cc(S(=O)(=O)O)cc3cc(S(=O)(=O)O)c(N=Nc4cc(OC)c(N=Nc5c(S(=O)(=O)O)cc6cc(S(=O)(=O)O)cc(NC(C)=O)c6c5O)cc4OC)c(O)c23)c(C(C)(C)CC)c1` [Compound 3], in the data set with HIV-1 RF [1] (10% FCS), the inhibition at 1.25 µg/mL came out at 96%, the inhibition at 2.5 µg/mL was found to be 100% and the inhibition at 5 µg/mL is 100%. In the data set “LD50, intravenous, mice”, the LD50 at 168 h is 150 mg/kg. Also, the “Ames Test result” value in data set [2] is “Negative”. For the same compound, the inhibition at 0.5 µM in data set [3] was found to be 77%.
On to `COc1cc(N=Nc2c(S(=O)(=O)O)cc3cc(S(=O)(=O)O)cc(NC(=O)c4cc(Cl)ccc4Cl)c3c2O)c(OC)cc1N=Nc1c(S(=O)(=O)O)cc2cc(S(=O)(=O)O)cc(NC(=O)c3cc(Cl)ccc3Cl)c2c1O` [Compound 7], for which, in the data set on HIV-1 RF [1] (10% FCS), the inhibition at 0.6 µg/mL is 81%, the inhibition at 1.25 µg/mL is 99%, the inhibition at 2.5 µg/mL was 100% and the inhibition at 5 µg/mL was determined as 100%. For the same compound, in the data set on HIV-1 RF [1] (50% Human Serum), the inhibition at 0.6 µg/mL worked out at 0%, the inhibition at 1.25 µg/mL came out at 0%, the inhibition at 2.5 µg/mL was 48% and the inhibition at 5 µg/mL came to 97%. Further, the LD50 at 168 h in the data set “LD50, intravenous, mice” was determined as 170 mg/kg. The “Ames Test result” value in data set [2] is on record as “Positive”. For the same compound, the “Ames Test, specific mutagenic activity” value in data set [2] (unit as printed for Compound 7) is listed as 0.05 colony no/g g. Moreover, in data set [3], the inhibition at 0.5 µM is 41% and the inhibition at 5 µM is 75%.
As for `COc1cc(N=Nc2c(S(=O)(=O)O)cc3cc(S(=O)(=O)O)cc(NC(=O)c4ccc(Cl)cc4Cl)c3c2O)c(OC)cc1N=Nc1c(S(=O)(=O)O)cc2cc(S(=O)(=O)O)cc(NC(=O)c3ccc(Cl)cc3Cl)c2c1O` [Compound 11], in the data set on HIV-1 RF [1] (10% FCS, 0.3 μg/ml), the inhibition at 0.3 µg/mL amounted to 99%. In addition, in the data set on HIV-1 RF [1] (10% FCS), the inhibition at 0.6 µg/mL turned out to be 100%, the inhibition at 1.25 µg/mL turned out to be 100%, the inhibition at 2.5 µg/mL was determined as 100% and the inhibition at 5 µg/mL came to 100%. For the same compound, in the data set with HIV-1 RF [1] (50% Human Serum), the inhibition at 0.6 µg/mL came to 55%, the inhibition at 1.25 µg/mL is 87%, the inhibition at 2.5 µg/mL amounted to 93% and the inhibition at 5 µg/mL was determined as 98%. In the data set “LD50, intravenous, mice”, this compound gave a median lethal dose (LD50) at 168 h of 160 mg/kg. For the same compound, the “Ames Test result” value in data set [2] is “Positive”. Besides, in data set [2] (setting [6]), the “Ames Test, specific mutagenic activity” value is listed as 0.02 colony no/μg. For the same compound, in data set [3], the inhibition at 0.5 µM worked out at 30%. Further, in the data set with HIV-1 patient isolate IH (10% FCS), the inhibition at 2.5 µg/mL is 0%, the inhibition at 5 µg/mL amounted to 0%, the inhibition at 10 µg/mL was 100% and the inhibition at 20 µg/mL came to 100%. In the data set on HIV-1 patient isolate IH (50% Human Serum), the inhibition at 2.5 µg/mL amounted to 0%, the inhibition at 5 µg/mL stood at 0%, the inhibition at 10 µg/mL was 31% and the inhibition at 20 µg/mL worked out at 100%.
Regarding `COc1cc(N=Nc2c(S(=O)(=O)O)cc3cc(S(=O)(=O)O)cc(NC(=O)c4cc(Cl)cc(Cl)c4)c3c2O)c(OC)cc1N=Nc1c(S(=O)(=O)O)cc2cc(S(=O)(=O)O)cc(NC(=O)Cc3ccccc3)c2c1O` [Compound 14], the LD50 at 168 h in the data set “LD50, intravenous, mice” was determined as 160 mg/kg. Moreover, in the data set with HIV-1 RF [4], the inhibition at 1.25 µg/mL was found to be 50%, the inhibition at 2.5 µg/mL amounted to 56% and the inhibition at 5 µg/mL stood at 98%. In addition, in data set [2], the “Ames Test result” value was “Positive”. Moreover, in data set [2] (setting [6]), the “Ames Test, specific mutagenic activity” value came out at 0.12 colony no/μg.
The compound `CCC(C)(C)c1ccc(OCC(=O)Nc2cc(S(=O)(=O)O)cc3cc(S(=O)(=O)O)c(N=Nc4cc(OC)c(N=Nc5c(S(=O)(=O)O)cc6cc(S(=O)(=O)O)cc(NC(=O)c7ccc(Cl)cc7Cl)c6c5O)cc4OC)c(O)c23)c(C(C)(C)CC)c1` [Compound 15] gave an LD50 at 168 h in the data set “LD50, intravenous, mice” of 150 mg/kg. In the data set on HIV-1 RF [4], the inhibition at 1.25 µg/mL was found to be 61%, the inhibition at 2.5 µg/mL came to 89% and the inhibition at 5 µg/mL amounted to 100%. Moreover, the “Ames Test result” value in data set [2] is reported as “Negative”.
For the compound `COc1cc(N=Nc2c(S(=O)(=O)O)cc3cc(S(=O)(=O)O)cc(NC(=O)Nc4cccc5ccccc45)c3c2O)c(OC)cc1N=Nc1c(S(=O)(=O)O)cc2cc(S(=O)(=O)O)cc(NC(C)=O)c2c1O` [Compound 16], the LD50 at 168 h in the data set “LD50, intravenous, mice” came out at 160 mg/kg. In addition, the “Ames Test result” value in data set [2] is recorded as “Positive”. The “Ames Test, specific mutagenic activity” value in data set [2] (setting [6]) is 0.03 colony no/μg. For the same compound, the inhibition at 5 µM in data set [3] was determined as 98%.
In “LD50, intravenous, mice”, `CCCCCCC(=O)Nc1cc(S(=O)(=O)O)cc2cc(S(=O)(=O)O)c(N=Nc3cc(OC)c(N=Nc4c(S(=O)(=O)O)cc5cc(S(=O)(=O)O)cc(NC(=O)Cc6ccccc6)c5c4O)cc3OC)c(O)c12` [Compound 17] yielded an LD50 at 168 h of 130 mg/kg. For the same compound, in the data set on HIV-1 RF [4], the inhibition at 1.25 µg/mL is 72%, the inhibition at 2.5 µg/mL stood at 98% and the inhibition at 5 µg/mL amounted to 100%. Besides, in data set [2], the “Ames Test result” value was “Negative”.
In the case of `COc1cc(N=Nc2c(S(=O)(=O)O)cc3cc(S(=O)(=O)O)cc(NC(=O)c4ccc(Cl)cc4Cl)c3c2O)c(OC)cc1N=Nc1c(S(=O)(=O)O)cc2cc(S(=O)(=O)O)cc(NC(=O)Cc3ccc(Cl)cc3)c2c1O` [Compound 18], in the data set “LD50, intravenous, mice”, the LD50 at 168 h was found to be 135 mg/kg. Also, in data set [2], the “Ames Test result” value is recorded as “Negative”. Besides, in data set [3], the inhibition at 5 µM turned out to be 66%.
As to `CCOc1cc(N=Nc2c(S(=O)(=O)O)cc3cc(S(=O)(=O)O)cc(NC(=O)c4cccc(Cl)c4Cl)c3c2O)c(OCC)cc1N=Nc1c(S(=O)(=O)O)cc2cc(S(=O)(=O)O)cc(NC(=O)c3ccc(Cl)cc3Cl)c2c1O` [Compound 28], in the data set on HIV-1 RF [1] (10% FCS), the inhibition at 1.25 µg/mL was 100%, the inhibition at 2.5 µg/mL worked out at 100% and the inhibition at 5 µg/mL came to 100%. Moreover, the “Ames Test result” value in data set [2] is recorded as “Negative”. The inhibition at 1 µg/mL in data set [5] (1.0 μg/ml) is 0%. Besides, the inhibition at 2.5 µg/mL in data set [5] (2.5 μg/ml) was 67%. The inhibition at 5 µg/mL in data set [5] (5 μg/ml) came out at 98%.

Broadly, the inhibition is how much of the control response was suppressed. For orientation: LD50 means the dose expected to kill half of the subjects tested. Lower therefore signals a more toxic substance.
